Experimental data reported in ChEMBL document CHEMBL4680337, “Synthetic 1,4-Naphthoquinones inhibit P2X7 receptors in murine neuroblastoma cells” (Bioorg Med Chem, 2021).
Calls of active or inactive are those of the source. No cut-off for these calls is given here.

Assays:
Assay type in all cases: cell-based
N2a = assay: Cytotoxicity against mouse N2a cells assessed as reduction in cell viability incubated for 24 hrs by MTT assay
[1] = molecular target: T1, P2X purinoceptor 7 (Mus musculus) (UniProt Q9Z1M0); assay: Antagonist activity at P2X7R in mouse N2a cells assessed as reduction in ATP-induced calcium influx at 5 uM incubated for 1 hr by Fura-2AM dye based spectrofluorometry relative to control
T1 sequence (whole entry): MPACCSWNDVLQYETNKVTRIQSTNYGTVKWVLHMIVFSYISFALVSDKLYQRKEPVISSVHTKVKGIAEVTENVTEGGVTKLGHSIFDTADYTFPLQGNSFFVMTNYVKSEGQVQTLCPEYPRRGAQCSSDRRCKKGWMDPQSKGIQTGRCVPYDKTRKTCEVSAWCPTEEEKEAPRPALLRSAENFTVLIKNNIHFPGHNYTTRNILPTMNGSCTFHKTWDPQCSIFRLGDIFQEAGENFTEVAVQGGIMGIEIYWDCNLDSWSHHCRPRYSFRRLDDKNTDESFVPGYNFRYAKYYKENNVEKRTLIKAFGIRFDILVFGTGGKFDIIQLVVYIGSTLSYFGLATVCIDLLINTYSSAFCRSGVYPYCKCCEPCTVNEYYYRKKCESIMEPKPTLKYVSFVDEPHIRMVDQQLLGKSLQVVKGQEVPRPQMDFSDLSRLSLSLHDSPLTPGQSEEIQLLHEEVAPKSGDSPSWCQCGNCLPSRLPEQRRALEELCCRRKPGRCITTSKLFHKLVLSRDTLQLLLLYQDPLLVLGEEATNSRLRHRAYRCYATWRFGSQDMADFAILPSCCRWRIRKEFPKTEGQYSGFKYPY

[2] = molecular target: T1, P2X purinoceptor 7 (Mus musculus); assay: Antagonist activity at P2X7R in mouse N2a cells assessed as reduction in ATP-induced EtBr uptake by cells incubated for 1 hr by fluorescence based assay relative to control; conditions: concentration not given here
[3] = molecular target: T1, P2X purinoceptor 7 (Mus musculus); assay: Antagonist activity at P2X7R in mouse N2a cells assessed as reduction in ATP-induced YO-PRO-1 uptake by cells incubated for 1 hr by fluorescence based assay; conditions: dose 0.1-10 µM
[4] = molecular target: T1, P2X purinoceptor 7 (Mus musculus); assay: Antagonist activity at P2X7R in mouse N2a cells assessed as reduction in ATP-induced YO-PRO-1 uptake by cells at 10 uM incubated for 1 hr by fluorescence based assay relative to control
[5] = molecular target: T1, P2X purinoceptor 7 (Mus musculus); assay: Antagonist activity at P2X7R in mouse N2a cells assessed as inhibition of ATP-induced ROS production at 0.1 uM incubated for 1 hr by using H2DCF-DA probe based fluorescence assay relative to control
[6] = molecular target: T1, P2X purinoceptor 7 (Mus musculus); assay: Antagonist activity at P2X7R in mouse N2a cells assessed as cytoprotective activity against ATP-induced cell death by measuring increase in cell viability at 1 uM incubated for 1 hr followed by ATP addition and measured after 48 hrs by MTT assay relative to control; conditions: time 49.0 hrs
[7] = molecular target: T1, P2X purinoceptor 7 (Mus musculus); assay: Antagonist activity at P2X7R in mouse N2a cells assessed as inhibition of ATP-induced NO production at 0.1 to 10 uM incubated for 1 hr by using DAF-FM probe based fluorescence assay; conditions: dose 0.1-10 µM
[8] = molecular target: T1, P2X purinoceptor 7 (Mus musculus); assay: Antagonist activity at P2X7R in mouse N2a cells assessed as reduction in ATP-induced YO-PRO-1 uptake by cells at 5 uM incubated for 1 hr by fluorescence imaging based laser scanning microscopic analysis
[9] = molecular target: T1, P2X purinoceptor 7 (Mus musculus); assay: Antagonist activity at P2X7R in mouse N2a cells assessed as inhibition of ATP-induced NO production by measuring NO level at 10 uM incubated for 1 hr by using DAF-FM probe based fluorescence assay relative to control; design: scale not given: the % may be the effect or the level left
[10] = molecular target: T1, P2X purinoceptor 7 (Mus musculus); assay: Antagonist activity at P2X7R in mouse N2a cells assessed as reduction in ATP-induced EtBr uptake by cells at 0.1 to 10 uM incubated for 1 hr by fluorescence based assay; conditions: dose 0.1-10 µM
[11] = molecular target: T1, P2X purinoceptor 7 (Mus musculus); assay: Antagonist activity at P2X7R in mouse N2a cells assessed as reduction in ATP-induced calcium influx at 10 uM incubated for 1 hr by Fura-2AM dye based spectrofluorometry relative to control
[12] = molecular target: T1, P2X purinoceptor 7 (Mus musculus); assay: Antagonist activity at P2X7R in mouse N2a cells assessed as inhibition of ATP-induced ROS production at 10 uM incubated for 1 hr by using H2DCF-DA probe based fluorescence assay
[13] = molecular target: T1, P2X purinoceptor 7 (Mus musculus); assay: Antagonist activity at P2X7R in mouse N2a cells assessed as cytoprotective activity against ATP-induced cell death by measuring increase in cell viability at 10 uM incubated for 1 hr followed by ATP addition and measured after 48 hrs by MTT assay relative to control; conditions: time 49.0 hrs
[14] = molecular target: T1, P2X purinoceptor 7 (Mus musculus); assay: Antagonist activity at P2X7R in mouse N2a cells assessed as inhibition of ATP-induced NO production at 10 uM incubated for 1 hr by using DAF-FM probe based fluorescence assay
[15] = molecular target: T1, P2X purinoceptor 7 (Mus musculus); assay: Antagonist activity at P2X7R in mouse N2a cells assessed as cytoprotective activity against ATP-induced cell death by measuring increase in cell viability at 0.1 to 5 uM incubated for 1 hr followed by ATP addition and measured after 48 hrs by MTT assay; conditions: dose 0.1-5 µM, time 49.0 hrs
[16] = molecular target: T1, P2X purinoceptor 7 (Mus musculus); assay: Antagonist activity at P2X7R in mouse N2a cells assessed as inhibition of ATP-induced ROS production at 1 uM incubated for 1 hr by using H2DCF-DA probe based fluorescence assay relative to control
[17] = molecular target: T1, P2X purinoceptor 7 (Mus musculus); assay: Antagonist activity at P2X7R in mouse N2a cells assessed as inhibition of ATP-induced NO production by measuring NO level at 1 uM incubated for 1 hr by using DAF-FM probe based fluorescence assay relative to control; design: scale not given: the % may be the effect or the level left
[18] = molecular target: T1, P2X purinoceptor 7 (Mus musculus); assay: Antagonist activity at P2X7R in mouse N2a cells assessed as reduction in ATP-induced calcium influx at 5 uM incubated for 1 hr by Fluo-3AM dye based laser scanning microscopy
[19] = molecular target: T1, P2X purinoceptor 7 (Mus musculus); assay: Antagonist activity at P2X7R in mouse N2a cells assessed as inhibition of ATP-induced ROS production at 50 uM incubated for 1 hr by using H2DCF-DA probe based fluorescence assay
[20] = molecular target: T1, P2X purinoceptor 7 (Mus musculus); assay: Antagonist activity at P2X7R in mouse N2a cells assessed as inhibition of ATP-induced NO production at 50 uM incubated for 1 hr by using DAF-FM probe based fluorescence assay
[21] = molecular target: T1, P2X purinoceptor 7 (Mus musculus); assay: Antagonist activity at P2X7R in mouse N2a cells assessed as reduction in ATP-induced calcium influx at 50 uM incubated for 1 hr by Fura-2AM dye based spectrofluorometry

COC1=C(S[C@@H]2O[C@H](CO)[C@@H](O)[C@H](O)[C@H]2O)C(=O)c2ccccc2C1=O
EC50 (N2a): 75.2 µM
inhibition [1]: 15.1%
inhibition [2]: 34.8%
inhibition [3]: Dose-dependent effect
inhibition [4]: 60.9%
inhibition [5]: 69.8%
Activity [6]: 22.2%
inhibition [7]: inactive

O=C1C2=C(S[C@H]3O[C@@H](CO)[C@H](O)[C@@H](O)[C@@H]3O2)C(=O)c2ccccc21
EC50 (N2a): 29.5 µM
inhibition [1]: 32.7%
inhibition [2]: 42.6%
inhibition [3]: Dose-dependent effect
inhibition [4]: 46.2%
inhibition [8]: Active
inhibition [5]: 66.3%
Activity [6]: 19.6%
Activity [9]: 44.5%
inhibition [10]: Active

CCOc1ccc(Nc2ccc(/C(=C3C=C/C(=[N+](/CC)Cc4cccc(S(=O)(=O)[O-])c4)C=C/3C)c3ccc(N(CC)Cc4cccc(S(=O)(=O)O)c4)cc3C)cc2)cc1
inhibition [11]: 46%
inhibition [4]: Active
inhibition [12]: Active
Activity [13]: 14.6%
inhibition [14]: Active

Cc1c(C)c(O)c2c(c1O)C(=O)C1=C(S[C@H]3O[C@@H](CO)[C@H](O)[C@@H](O)[C@@H]3O1)C2=O
EC50 (N2a): 22.6 µM
inhibition [1]: 36%
inhibition [2]: 18.3%
inhibition [4]: 20.7%
Activity [15]: inactive
inhibition [16]: 58.4%
Activity [17]: 48.5%
inhibition [18]: Active

COC1=C(S[C@@H]2O[C@H](COC(C)=O)[C@@H](OC(C)=O)[C@H](OC(C)=O)[C@H]2OC(C)=O)C(=O)c2c(O)c(C)c(C)c(O)c2C1=O
EC50 (N2a): 17.8 µM
inhibition [1]: inactive
inhibition [2]: 25.2%
inhibition [3]: Dose-dependent effect
inhibition [4]: 54.1%
Activity [15]: inactive
inhibition [16]: 70.9%
Activity [17]: 56.8%

Cc1cc(/N=N/c2ccc(S(=O)(=O)O)cc2S(=O)(=O)O)c(COP(=O)(O)O)c(C=O)c1O
inhibition [19]: Active
inhibition [20]: Active
inhibition [21]: Active

Clc1cccc(-c2nnnn2Cc2cccnc2)c1Cl
inhibition [1]: 90%
